These are literature values, as cited in patent US20250312272A1, “PHARMACEUTICAL FORMULATIONS FOR ORAL ADMINISTRATION AND METHODS OF MAKING AND USING THE SAME” (Aaryen Pharma LLC, priority 2024, published 2025).

Counter-ions that a name gives are not always drawn.

For `COc1ccc2c(c1)[C@]13CCCC[C@@H]1[C@H](C2)N(C)CC3` [dextromethorphan hydrobromide], the “solubility in water” value is reported as “water soluble”.
Regarding `COc1ccccc1OCC(O)CO` (centres unmarked) [guaifenesin], the “solubility (descriptive term of Table 1)” value (in water) was “sparingly soluble”.
